Results published in patent US9199959B2, “HIV replication inhibitor” (Shionogi & Co., Ltd., priority 2011, dated 2015).

Key:
[1] = biological target: T1, CYP3A4 (Homo sapiens, UniProt P08684); test: CYP inhibition assay, terfenedine hydroxylation; format: in vitro ADME; settings: pooled human liver microsomes, probe terfenedine (hydroxylation), 1 μmol/L, pooled human hepatic microsome
T1 construct: enzyme, pooled human hepatic microsome 0.2 mg protein/mL; from tissue; host or cells: pooled human liver microsomes
Description: (§1) Using commercially available pooled human hepatic microsome, and employing, as markers, 7-ethoxyresorufin O-deethylation (CYP1A2), tolbutamide methyl-hydroxylation (CYP2C9), mephenytoin 4′-hydroxylation (CYP2C19), dextromethorphan O-demethylation (CYP2D6), and terfenedine hydroxylation (CYP3A4) as typical substrate metabolism reactions of human main five CYP enzyme forms (CYP1A2, 2C9, 2C19, 2D6, 3A4), an inhibitory degree of each metabolite production amount by a test compound was assessed.
(§2) The reaction conditions were as follows: substrate, 0.5 μmol/L ethoxyresorufin (CYP1A2), 100 μmol/L tolbutamide (CYP2C9), 50 μmol/L S-mephenytoin (CYP2C19), 5 μmol/L dextromethorphan (CYP2D6), 1 μmol/L terfenedine (CYP3A4); reaction time, 15 minutes; reaction temperature, 37° C.; enzyme, pooled human hepatic microsome 0.2 mg protein/mL; test drug concentration, 1, 5, 10, 20 μmol/L (four points).
(§3) Each five kinds of substrates, human hepatic microsome, and a test drug in 50 mmol/L Hepes buffer as a reaction solution was added to a 96-well plate as the composition as described above, NADPH, as a cofactor was added to initiate metabolism reactions as markers and, after the incubation at 37° C. for 15 minutes, a methanol/acetonitrile=1/1 (v/v) solution was added to stop the reaction. After the centrifugation at 3000 rpm for 15 minutes, resorufin (CYP1A2 metabolite) in the supernatant was quantified by a fluorescent multilabel counter and tolbutamide hydroxide (CYP2C9 metabolite), mephenytoin 4′ hydroxide (CYP2C19 metabolite), dextrorphan (CYP2D6 metabolite), and terfenadine alcohol (CYP3A4 metabolite) were quantified by LC/MS/MS.
(§4) A reaction system containing only DMSO which is a solvent for dissolving a drug was adopted as a control (100%), and the remaining activity (%) was calculated, then IC50 was calculated by reverse presumption with a logistic model using a concentration and an inhibition rate.

[2] = test system: Salmonella typhimurium TA98 strain, TA100 strain; format: cell-based; settings: Salmonella typhimurium TA98, TA100, non-metabolism and metabolism activating condition
Description: The mutagenicity of the compound of the present invention was assayed.
20 μL of freezing-stored rat typhoid bacillus (Salmonella typhimurium TA98 strain, TA100 strain) was inoculated on 10 mL of a liquid nutrient medium (2.5% Oxoid nutrient broth No. 2), and this was cultured before shaking at 37° C. for 10 hours. 9 mL of a bacterial solution of the TA98 strain was centrifuged (2000×g, 10 minutes) to remove a culturing solution. The bacteria was suspended in F buffer (K2HPO4: 3.5 g/L, KH2PO4: 1 g/L, (NH4)2SO4: 1 g/L, trisodium citrate dehydrate: 0.25 g/L, MgSO4.7H2O: 0.1 g/L), and the suspension was added to 110 mL of an Exposure medium (Micro F buffer containing Biotin: 8 μg/mL, histidine: 0.2 μg/mL, glucose: 8 mg/mL). The TA100 strain was added to 120 mL of the Exposure medium per 3.16 mL of the bacterial solution to prepare a test bacterial solution. […] of a test substance DMSO solution (several stage dilution from maximum dose 50 mg/mL at 2- to 3-fold ratio), DMSO as a negative control, 50 μg/mL of 4-nitroquinoline-1-oxide DMSO solution for the TA98 strain, 0.25 μg/mL of 2-(2-furyl)-3-(5-nitro-2-furyl)acrylamide DMSO solution for the TA100 strain each under the non-metabolism activating condition, 40 μg/mL of 2-aminoanthracene DMSO solution for the TA98 strain, 20 μg/mL of 2-aminoanthracene DMSO solution for the TA100 strain each under the metabolism activating condition all as a positive control, and 588 μL of the test bacterial solution (a mixed solution of 498 μL of the test bacterial solution and 90 μL of S9 mix under the metabolism activating condition) were mixed, and this was shaking-cultured at 37° C. for 90 minutes. […] Since a well containing a bacterium which has obtained the proliferation ability by mutation of an amino acid (histidine) synthesizing enzyme gene turns from purple to yellow due to a pH change, the bacterium proliferation well which has turned to yellow in 48 wells per dose is counted, and was assessed by comparing with a negative control group. […]

[3] = test system: HIV (HTLV-III B strain); test: HIV replication inhibition assay (MTT, MT-4 cells); format: cell-based; settings: Human immunodeficiency virus 1, MT4, 96 h, four days culture, concentration at which cell cytotoxicity by virus is inhibited 50%
Description: HIV (HTLV-III B strain) persistent infected human T cell strain Molt-4 clone 8 was cultured in 10% Fetal Bovine Serum-containing RPMI-1640 medium and the supernatant was filtrated, then the virus titer was measured and the solution was stored at −80° C. Each anti-human immunodeficiency virus active substance was diluted with the above cultured medium to the designated concentration, which was dispensed into 96 well micro plate by 50 μL. Next, a MT-4 cell suspended liquid was dispensed by 100 μL (2.5×10^4 cells), then the above HIV-containing supernatant diluted with the above cultured medium was added thereto by 50 μL (60 pfu (plaque forming unit)).
The obtained mixture was cultured at 37° C. in CO2 incubator for four days, then 3-(4,5-dimehylthiazole-2-yl)-2,5-diphenyltetrazolynium bromide (MTT) 5 mg/mL in PBS was added to each well by 30 μL, followed by 1 hr-cultivation. In this step, as formazan was precipitated by reduction of MTT in living cells, the cell supernatant was removed from all well by 150 μL, then a 150 μL of solution (10% Triton X-100 and […]) was added thereto, followed by shaking with a plate mixer, to elute formazan. The formazan was measured with a microreader at OD: 560 nm and 690 nm (wavelength) and the result was compared with the reference. EC50 means the compound concentration at which cell cytotoxicity by virus is inhibited 50%.

[4] = biological target: T2, CYP2C19 (Homo sapiens, UniProt P33261); test: CYP inhibition assay, mephenytoin 4'-hydroxylation; format: in vitro ADME; settings: pooled human liver microsomes, probe S-mephenytoin (4'-hydroxylation), 50 μmol/L, pooled human hepatic microsome
T2 construct: enzyme, pooled human hepatic microsome 0.2 mg protein/mL; from tissue; host or cells: pooled human liver microsomes
Description: as §1, §2, §3, §4

T1 sequence (P08684 whole entry): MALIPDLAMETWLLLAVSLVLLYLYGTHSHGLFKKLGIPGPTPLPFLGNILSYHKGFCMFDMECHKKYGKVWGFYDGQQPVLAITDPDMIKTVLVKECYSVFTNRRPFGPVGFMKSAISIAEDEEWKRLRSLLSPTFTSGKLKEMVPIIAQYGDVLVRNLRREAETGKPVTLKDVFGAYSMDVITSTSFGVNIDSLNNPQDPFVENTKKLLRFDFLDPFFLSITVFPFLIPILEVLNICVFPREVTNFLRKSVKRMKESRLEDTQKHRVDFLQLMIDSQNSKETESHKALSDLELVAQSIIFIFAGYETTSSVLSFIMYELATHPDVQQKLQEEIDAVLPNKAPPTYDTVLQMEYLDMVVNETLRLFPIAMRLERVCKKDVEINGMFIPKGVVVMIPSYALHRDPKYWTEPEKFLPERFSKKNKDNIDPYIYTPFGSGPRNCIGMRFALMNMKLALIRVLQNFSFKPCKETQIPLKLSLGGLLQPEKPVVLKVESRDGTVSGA
T2 sequence (P33261 whole entry): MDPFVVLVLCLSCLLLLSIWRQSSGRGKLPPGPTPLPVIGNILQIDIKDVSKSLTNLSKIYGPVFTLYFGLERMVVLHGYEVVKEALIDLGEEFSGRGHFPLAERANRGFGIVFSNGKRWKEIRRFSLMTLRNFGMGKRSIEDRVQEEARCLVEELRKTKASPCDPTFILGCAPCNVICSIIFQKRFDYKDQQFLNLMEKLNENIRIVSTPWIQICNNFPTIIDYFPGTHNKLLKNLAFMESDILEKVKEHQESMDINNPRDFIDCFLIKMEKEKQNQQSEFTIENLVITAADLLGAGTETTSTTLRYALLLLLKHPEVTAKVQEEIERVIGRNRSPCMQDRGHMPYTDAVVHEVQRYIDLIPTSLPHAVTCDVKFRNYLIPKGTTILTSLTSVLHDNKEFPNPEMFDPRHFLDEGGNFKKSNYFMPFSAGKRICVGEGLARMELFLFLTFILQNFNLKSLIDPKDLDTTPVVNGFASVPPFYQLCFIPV

CC(=O)Nc1c(C)c(C(OC(C)(C)C)C(=O)O)c(-c2ccc(C)c(C)c2)c(C)c1-c1ccc(C)c(C)c1 (stereo not shown) [Compound I-6]
IC50 at 15 min [1]: ≥ 20 µM | mutagenicity [2]: negative | EC50 [3]: 0.0078 µM | IC50 at 15 min [4]: ≥ 20 µM
